Reference: US6310247A, “7-aryl-6(Z)-heptatrienoic acid retinamides” (Hoffmann-LA Roche Inc., priority 1999, dated 2001)
Read-outs that look alike come from different tables or passages of the source.

Tests used:
Assay type in all cases: cell-based
MDA 435 cells = assay: Cell growth inhibition: MTT assay, MDA 435 (ER- breast carcinoma); details: Homo sapiens, MDA435, read-out: % inhibition of cell growth compared to no drug control
Description: ER- breast carcinoma, human (MDA-435) obtained from Dr. Janet Price, MDA Cancer Center, Houston, Tex., were grown in Gibco's RPMI 1640 media supplemented with sodium pyruvate, 10% FBS and 13 ng/mL gentamicin. Cells were incubated at 37° C., 4.5% CO2 and 95.5% humidified air.
(§1) 1. Cell growth inhibition: MTT Assay
(§2) The compounds of formula 1 were tested for ability to inhibit cell growth using the standard MTT assay, a tetrazolium-based assay which measures the viability of cells in culture. Cells were harvested upon reaching 70-80% confluency and pelleted. The cells were then resuspended in medium in which FBS was replaced with Hyclone's Charcoal/Dextran stripped FBS, and seeded (2 mL/well) into 6-well plates (Corning) at a density allowing for linear growth over a four day assay period. Compounds of formula 1 (10 mM stock in dimethylsulfoxide (DMSO)) were added 18-24 hours post-seeding. Compound dilutions were prepared in the appropriate growth media and added to the cells for final concentrations of 10, 3.3 and 1 μM in 0.1% DMSO. At 24, 48 and 72 hr. time points, MTT (3-[4,5-dimethylthiazol-2-yl-2,5-diphenyltetrazolium bromide) stock solution (5mg/mL in 1 PBS) was added to the cells plates (625 μL/well) which were then incubated for 2.5 hours. Liquid was aspirated from the wells and 1 mL/well of 95% ethanol was added to solubilize the formazan reaction product. The plates were shaken (Bellco Mini-Orbital Shaker) for 15 minutes. The solubilized formazan was then transferred (50 μls) into a 96-well plate and the optical densities (OD) were measured (Bio-Tek Microplate Reader) at 570 nm and reference wavelength of 660 nm. Percentage of inhibition of cell growth was calculated according to the following formula: [formula]

MDA 231 cells = assay: Cell growth inhibition: MTT assay, MDA 231 (ER- breast carcinoma); details: Homo sapiens, MDA-MB-231, read-out: % inhibition of cell growth compared to no drug control
Description: ER- breast carcinoma, human (MDA-231) obtained from ATCC (HTB 22), were grown in Eagle's MEM medium supplemented with non-essential amino acids, sodium pyruvate, and Earle's BSS, 10% FBS, and 13 ng/mL gentamicin. Cells were incubated at 37° C., 4.5% CO2 and 95.5% humidified air.
as §1, §2

ZR-75-1 cells = assay: Cell growth inhibition: MTT assay, ZR-75-1 (ER+ breast carcinoma); details: Homo sapiens, read-out: % inhibition of cell growth compared to no drug control
Description: ER+ breast carcinoma, human (ZR-75-1) obtained from ATCC (CRL 1500), were grown in Gibco's RPMI 1640 media supplemented with sodium pyruvate, 10% FBS and 13 ng/mL gentamicin. Cells were incubated at 37° C., 4.5% CO2 and 95.5% humidified air.
as §1, §2

| SMILES | inhibition at 1 µM (MDA 435 cells; 24 hours) | inhibition at 3.3 µM (MDA 435 cells; 24 hours) | inhibition at 10 µM (MDA 435 cells; 24 hours) | inhibition at 1 µM (MDA 435 cells; 48 hours) | inhibition at 3.3 µM (MDA 435 cells; 48 hours) | inhibition at 10 µM (MDA 435 cells; 48 hours) | inhibition at 1 µM (MDA 435 cells; 72 hours) | inhibition at 3.3 µM (MDA 435 cells; 72 hours) | inhibition at 10 µM (MDA 435 cells; 72 hours) | inhibition at 1 µM (MDA 231 cells; 24 hours) | inhibition at 3.3 µM (MDA 231 cells; 24 hours) | inhibition at 10 µM (MDA 231 cells; 24 hours) | inhibition at 1 µM (MDA 231 cells; 48 hours) | inhibition at 3.3 µM (MDA 231 cells; 48 hours) | inhibition at 10 µM (MDA 231 cells; 48 hours) | inhibition at 1 µM (MDA 231 cells; 72 hours) | inhibition at 3.3 µM (MDA 231 cells; 72 hours) | inhibition at 10 µM (MDA 231 cells; 72 hours) | other results |
| --- | --- | --- | --- | --- | --- | --- | --- | --- | --- | --- | --- | --- | --- | --- | --- | --- | --- | --- | --- |
| C/C(=C/C=C/C(C)=C/C(=O)Nc1ccc(O)cc1)c1cc(Br)cc(Br)c1 [N-(4-hydroxyphenyl)-(2E,4E,6Z)-7-(3,5-dibromophenyl)-3,7-dimethyl-2,4,6-heptatrienamide] | 27% | 28% | 37% | 70% | 66% | 70% | 86% | 88% | 87% | 6% | 65% | 65% | 72% | 81% | 82% | 78% | 86% | 87% | – |
| COc1cc(OC)cc(\C(C)=C/C=C/C(C)=C/C(=O)Nc2ccc(O)cc2)c1 [N-(4-hydroxyphenyl)-(2E,4E,6Z)-7-(3,5-dimethoxyphenyl)-3,7-dimethyl-2,4,6-heptatrienamide] | 21% | 36% | 25% | 64% | 61% | 61% | 86% | 87% | 87% | 18% | 21% | 30% | 30% | 52% | 65% | 25% | 61% | 64% | – |
| C/C(=C/C=C/C(C)=C/C(=O)Nc1ccc(O)cc1)c1cc(C)cc(C)c1 [N-(4-hydroxyphenyl)-(2E,4E,6Z)-7-(3,5-dimethylphenyl)-3,7-dimethyl-2,4,6-heptatrienamide] | 56% | 53% | 53% | 95% | 92% | 98% | 95% | 94% | 91% | 50% | 51% | 58% | 60% | 70% | 72% | 81% | 82% | 85% | – |
| CC(/C=C/C(C)=C/C(=O)Nc1ccc(O)cc1)=C(\C)c1cc(C(F)(F)F)cc(C(F)(F)F)c1 [N-(4-hydroxyphenyl)-(2E,4E,6Z)-7-[3,5-bis(trifluoromethyl)phenyl]-3,6,7-trimethyl-2,4,6-heptatrienamide] | 3% | 67% | 68% | 3% | 95% | 96% | 4% | 98% | 99% | 0% | 0% | 40% | 0% | 0% | 57% | 38% | 48% | 76% | inhibition at 1 µM (ZR-75-1 cells; 48 hours): 3%; inhibition at 3.3 µM (ZR-75-1 cells; 48 hours): 0%; inhibition at 10 µM (ZR-75-1 cells; 48 hours): 60%; inhibition at 1 µM (ZR-75-1 cells; 72 hours): 16%; inhibition at 3.3 µM (ZR-75-1 cells; 72 hours): 10%; inhibition at 10 µM (ZR-75-1 cells; 72 hours): 80% |
| CC(/C=C/C=C\c1cc(C(F)(F)F)cc(C(F)(F)F)c1)=C\C(=O)Nc1ccc(O)cc1 [N-(4-hydroxyphenyl)-(2E,4E,6Z)-7-[3,5-bis(trifluoromethyl)phenyl]-3-methyl-2,4,6-heptatrienamide] | 19% | 81% | 91% | 45% | 93% | 99% | 73% | 83% | 100% | 22% | 33% | 37% | 42% | 51% | 50% | 50% | 68% | 73% | – |
| C/C(=C/C=C/C(C)=C/C(=O)Nc1ccc(O)cc1)c1ccccc1 [N-(4-hydroxyphenyl)-(2E,4E,6Z)-7-phenyl-3,7-dimethyl-2,4,6-heptatrienamide] | 3% | 3% | 2% | 39% | 40% | 42% | 41% | 51% | 68% | 45% | 57% | 58% | 67% | 80% | 81% | 76% | 87% | 88% | – |
